Measured values: PubChem BioAssay (NCI)
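Test compounds were applied to cells in 96-well plates for 48 hours at 5 doses. The concentration for 50% growth inhibition is given as GI50. At the TGI there is no net growth.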

Assays:
Test in all cases: inhibition of tumour cell growth, NCI panel, 48 h
SK-MEL-5 melanoma = system: SK-MEL-5 melanoma
SK-MEL-2 melanoma = system: SK-MEL-2 melanoma
LOX IMVI melanoma = system: LOX IMVI melanoma
BT-549 breast = system: BT-549 breast
MALME-3M melanoma = system: MALME-3M melanoma
MDA-MB-231 breast = system: MDA-MB-231 breast
NCI-H23 lung = system: NCI-H23 lung
SF-539 CNS = system: SF-539 CNS
SN12C renal = system: SN12C renal
DU-145 prostate = system: DU-145 prostate
K-562 leukemia = system: K-562 leukemia
RPMI-8226 leukemia = system: RPMI-8226 leukemia
NCI/ADR-RES ovarian = system: NCI/ADR-RES ovarian
IGROV1 ovarian = system: IGROV1 ovarian
MDA-MB-435 = system: MDA-MB-435
786-0 renal = system: 786-0 renal
COLO 205 colon = system: COLO 205 colon
HOP-62 NSCLC = system: HOP-62 NSCLC
SNB-75 CNS = system: SNB-75 CNS
SNB-19 CNS = system: SNB-19 CNS
HT29 colon = system: HT29 colon
SK-MEL-28 melanoma = system: SK-MEL-28 melanoma
EKVX NSCLC = system: EKVX NSCLC
OVCAR-3 ovarian = system: OVCAR-3 ovarian
NCI-H460 lung = system: NCI-H460 lung
HCT-15 colon = system: HCT-15 colon
T-47D breast = system: T-47D breast
ACHN renal = system: ACHN renal
TK-10 renal = system: TK-10 renal
MOLT-4 leukemia = system: MOLT-4 leukemia
UACC-257 melanoma = system: UACC-257 melanoma
A498 renal = system: A498 renal
SW-620 colon = system: SW-620 colon
UO-31 renal = system: UO-31 renal
PC-3 prostate = system: PC-3 prostate
SF-295 CNS = system: SF-295 CNS
HCT-116 colon = system: HCT-116 colon
OVCAR-4 ovarian = system: OVCAR-4 ovarian
MCF7 breast = system: MCF7 breast
OVCAR-8 ovarian = system: OVCAR-8 ovarian
KM12 colon = system: KM12 colon
HOP-92 NSCLC = system: HOP-92 NSCLC
UACC-62 melanoma = system: UACC-62 melanoma
HS 578T breast = system: HS 578T breast
M14 melanoma = system: M14 melanoma
HL-60(TB) leukemia = system: HL-60(TB) leukemia
NCI-H522 lung = system: NCI-H522 lung
SK-OV-3 ovarian = system: SK-OV-3 ovarian
OVCAR-5 ovarian = system: OVCAR-5 ovarian
HCC-2998 colon = system: HCC-2998 colon
U251 CNS = system: U251 CNS
RXF 393 renal = system: RXF 393 renal
CAKI-1 renal = system: CAKI-1 renal
CCRF-CEM leukemia = system: CCRF-CEM leukemia
SF-268 CNS = system: SF-268 CNS
A549 NSCLC = system: A549 NSCLC
SR leukemia = system: SR leukemia

c1ccc2cc(-c3n(Cc4ccc5ccccc5n4)c4ccccc4[n+]3Cc3ccc4ccccc4n3)ccc2c1
GI50 (SK-MEL-5 melanoma): 201 nM
TGI (SK-MEL-5 melanoma): 422 nM
GI50 (SK-MEL-2 melanoma): 283 nM
TGI (SK-MEL-2 melanoma): 1010 nM
GI50 (LOX IMVI melanoma): 259 nM
TGI (LOX IMVI melanoma): 837 nM
GI50 (BT-549 breast): 316 nM
TGI (BT-549 breast): 1250 nM
GI50 (MALME-3M melanoma): 379 nM
TGI (MALME-3M melanoma): 1690 nM
GI50 (MDA-MB-231 breast): 307 nM
TGI (MDA-MB-231 breast): 1320 nM
GI50 (NCI-H23 lung): 285 nM
TGI (NCI-H23 lung): 1090 nM
GI50 (SF-539 CNS): 390 nM
TGI (SF-539 CNS): 1430 nM
GI50 (SN12C renal): 298 nM
TGI (SN12C renal): 1110 nM
GI50 (DU-145 prostate): 395 nM
TGI (DU-145 prostate): 1650 nM
GI50 (K-562 leukemia): 160 nM
TGI (K-562 leukemia): 1390 nM
GI50 (RPMI-8226 leukemia): 80.2 nM
TGI (RPMI-8226 leukemia): 520 nM
GI50 (NCI/ADR-RES ovarian): 6600 nM
TGI (NCI/ADR-RES ovarian): 26400 nM
GI50 (IGROV1 ovarian): 290 nM
TGI (IGROV1 ovarian): 1280 nM
GI50 (MDA-MB-435): 369 nM
TGI (MDA-MB-435): 1350 nM
GI50 (786-0 renal): 392 nM
TGI (786-0 renal): 1720 nM
GI50 (COLO 205 colon): 171 nM
TGI (COLO 205 colon): 346 nM
GI50 (HOP-62 NSCLC): 363 nM
TGI (HOP-62 NSCLC): 1490 nM
GI50 (SNB-75 CNS): 190 nM
TGI (SNB-75 CNS): 746 nM
GI50 (SNB-19 CNS): 315 nM
TGI (SNB-19 CNS): 1320 nM
GI50 (HT29 colon): 256 nM
TGI (HT29 colon): 1190 nM
GI50 (SK-MEL-28 melanoma): 423 nM
TGI (SK-MEL-28 melanoma): 1650 nM
GI50 (EKVX NSCLC): 517 nM
TGI (EKVX NSCLC): 2080 nM
GI50 (OVCAR-3 ovarian): 314 nM
TGI (OVCAR-3 ovarian): 1390 nM
GI50 (NCI-H460 lung): 361 nM
TGI (NCI-H460 lung): 1310 nM
GI50 (HCT-15 colon): 1600 nM
TGI (HCT-15 colon): 3180 nM
GI50 (T-47D breast): 222 nM
TGI (T-47D breast): 1280 nM
GI50 (ACHN renal): 717 nM
TGI (ACHN renal): 1950 nM
GI50 (TK-10 renal): 413 nM
TGI (TK-10 renal): 1830 nM
GI50 (MOLT-4 leukemia): 348 nM
TGI (MOLT-4 leukemia): 1400 nM
GI50 (UACC-257 melanoma): 275 nM
TGI (UACC-257 melanoma): 1040 nM
GI50 (A498 renal): 121 nM
TGI (A498 renal): 801 nM
GI50 (SW-620 colon): 346 nM
TGI (SW-620 colon): 1420 nM
GI50 (UO-31 renal): 1340 nM
TGI (UO-31 renal): 2660 nM
GI50 (PC-3 prostate): 184 nM
TGI (PC-3 prostate): 1120 nM
GI50 (SF-295 CNS): 301 nM
TGI (SF-295 CNS): 1090 nM
GI50 (HCT-116 colon): 272 nM
TGI (HCT-116 colon): 1120 nM
GI50 (OVCAR-4 ovarian): 255 nM
TGI (OVCAR-4 ovarian): 1130 nM
GI50 (MCF7 breast): 277 nM
TGI (MCF7 breast): 1140 nM
GI50 (OVCAR-8 ovarian): 297 nM
TGI (OVCAR-8 ovarian): 1220 nM
GI50 (KM12 colon): 321 nM
TGI (KM12 colon): 1210 nM
GI50 (HOP-92 NSCLC): 136 nM
TGI (HOP-92 NSCLC): 517 nM
GI50 (UACC-62 melanoma): 339 nM
TGI (UACC-62 melanoma): 1320 nM
GI50 (HS 578T breast): 343 nM
TGI (HS 578T breast): 1700 nM
GI50 (M14 melanoma): 307 nM
TGI (M14 melanoma): 1530 nM
GI50 (HL-60(TB) leukemia): 152 nM
TGI (HL-60(TB) leukemia): 462 nM
GI50 (NCI-H522 lung): 321 nM
TGI (NCI-H522 lung): 1250 nM
GI50 (SK-OV-3 ovarian): 268 nM
TGI (SK-OV-3 ovarian): 912 nM
GI50 (OVCAR-5 ovarian): 368 nM
TGI (OVCAR-5 ovarian): 1470 nM
GI50 (HCC-2998 colon): 344 nM
TGI (HCC-2998 colon): 1460 nM
GI50 (U251 CNS): 242 nM
TGI (U251 CNS): 1140 nM
GI50 (RXF 393 renal): 245 nM
TGI (RXF 393 renal): 1240 nM
GI50 (CAKI-1 renal): 655 nM
TGI (CAKI-1 renal): 2000 nM
GI50 (CCRF-CEM leukemia): 333 nM
TGI (CCRF-CEM leukemia): 1670 nM
GI50 (SF-268 CNS): 332 nM
TGI (SF-268 CNS): 1420 nM
GI50 (A549 NSCLC): 349 nM
TGI (A549 NSCLC): 1510 nM
GI50 (SR leukemia): 362 nM
TGI (SR leukemia): 1420 nM
